How the values were obtained:
[1] = test system: monoclonal antibody 14H04; experiment: ACMIA cross-reactivity / binding of tacrolimus derivatives to monoclonal antibody 14H04; design: species or system mouse; settings: ACMIA format
Experimental: The monoclonal antibody for region 14 may be identified by a screening method as follows: The binding region of an antibody clone was identified based on its binding properties to different tacrolimus derivatives such as metabolites and immunogens.
Measurements of tacrolimus derivatives by the ACMIA assay format were carried out according to the following procedure. Metabolites were obtained from Isotechnika Pharma Inc (Alberta, Canada) and Dr. Christistians Laboratory at University of Colorado in Denver, Colo. The tacrolimus derivative compounds such as immunogens were obtained from Siemens AG (Glasgow, Del.). The metabolite and immunogen cross-reactivity was measured using the ACMIA methodology described in U.S. Pat. No. 7,186,518, the relevant disclosure of which is incorporated herein by reference. Briefly, both clones were conjugated to β-galactosidase using a standard heterobifunctional SMCC (succinimidyl trans-4-(N-maleimidylmethyl)cyclohexane-1-carboxylate) linker according to known techniques. […] The cross reactivity was detected by testing the samples containing spiked metabolites and other tacrolimus derivatives such as the immunogens. […] Cross-reactivity was determined by dividing the apparent tacrolimus concentration by the concentration of added metabolite and expressing the result as a percentage.

monoclonal antibody 1E2 = experiment: ACMIA cross-reactivity / binding of tacrolimus derivatives to monoclonal antibody 1E2; design: species or system mouse; settings: ACMIA format, 1E2-β-galactosidase conjugate, tacrolimus C32 fluorescein derivative chrome particles
Experimental: The monoclonal antibody for region 12 may be identified by the following screening method. […] Modification of the hydroxyl group linked to C24 weakened the binding of monoclonal antibody 1E2 to tacrolimus.
Measurements of tacrolimus derivatives by the ACMIA assay format were carried out according to the following procedure. Metabolites were obtained from Isotechnika Pharma Inc (Alberta, Canada) and Dr. Christistians Laboratory at University of Colorado in Denver, Colo. The tacrolimus derivative compounds such as immunogens were obtained from Siemens AG (Glasgow, Del.). The metabolite and immunogen cross-reactivity was measured using the ACMIA methodology described in U.S. Pat. No. 7,186,518, the relevant disclosure of which is incorporated herein by reference. Briefly, both clones were conjugated to β-galactosidase using a standard heterobifunctional SMCC (succinimidyl trans-4-(N-maleimidylmethyl)cyclohexane-1-carboxylate) linker according to known techniques. Chrome particles (immunoassay solid phase) were prepared by conjugating tacrolimus analogs to bovine immunoglobulin and then to polyaldehyde dextran coated chromium dioxide particles. The tacrolimus analog used for monoclonal antibody 14H04 was a tacrolimus C22 oxime compound. The analog used for monoclonal antibody 1E2 was a tacrolimus C32 fluorescein derivative immobilized on anti-fluorescein antibody coated chromium dioxide particles. The cross reactivity was detected by testing the samples containing spiked metabolites and other tacrolimus derivatives such as the immunogens. The assay signals obtained from the samples containing the spiked metabolites were compared to the signals obtained from the samples containing tacrolimus standards. Cross-reactivity was determined by dividing the apparent tacrolimus concentration by the concentration of added metabolite and expressing the result as a percentage.

| SMILES | cross-reactivity with monoclonal antibody 14H04 ([1]; spiked metabolite compared with tacrolimus standards) | binding to monoclonal antibody 1E2 (monoclonal antibody 1E2) | binding to monoclonal antibody 14H04 ([1]; 14H04-β-galactosidase conjugate, tacrolimus C22 oxime chrome particles) |
| --- | --- | --- | --- |
| C=CCC1C=C(C)CC(C)CC(O)C2OC(O)(C(=O)C(=O)N3CCCCC3C(=O)OC(C(C)=CC3CCC(O)C(OC)C3)C(C)C(O)CC1=O)C(C)CC2OC (stereo not drawn) [15-O-demethyl tacrolimus, 15-O-desmethyl-tacrolimus] | no cross-reactivity |  |  |
| C=CCC1C=C(C)CC(C)CC(OC)C2OC(O)(C(=O)C(=O)N3CCCCC3C(=O)OC(C(C)=CC3CCC(O)C(O)C3)C(C)C(O)CC1=O)C(C)CC2OC (stereo not drawn) [31-O-desmethyl, 31-O-desmethyl Tacrolimus] |  | does not decrease binding |  |
| C=CCC1C=C(C)CC(C)CC(OC)C2OC(O)(C(=O)C(=O)N3CCCCC3C(=O)OC(C(C)=CC3CCC(O)C(OC)C3)C(C)C(O)CC1=O)C(C)CC2O (stereo not drawn) [M1, 13-O-desmethyl-tacrolimus] |  | removed the binding |  |
| C=CCC1C=C(C)CC(C)CC(OC)C2OC(O)(C(=O)C(=O)N3CCCCC3C(=O)OC(C(C)=CC3CCC(O)C(O)C3)C(C)C(O)CC1=O)C(C)CC2O (stereo not drawn) [MVI, 13,31-O-didesmethyl-tacrolimus] |  | removed the binding |  |
| C=CCC1C=C(C)CC(C)CC(OC)C2OC(O)(C(=O)C(=O)N3CCCCC3C(=O)OC(C(C)=CC3CCC(O)C(OC)C3)C(C)C(O)CC1=NO)C(C)CC2OC (stereo not drawn) [tacrolimus C22 oxime] |  | does not bind | strong binding |
